The NIST ThermoML archive (doi:10.1007/s10765-016-2089-2)

Columns and labels:
[1] = wn = mass fraction of the nth substance listed; conditions: 100 kPa, Liquid; for viscosity: Capillary tube (Ostwald / Ubbelohde) method; for mass density: Vibrating tube method; for electrical conductivity: Alternating current cell with electrodes
[2] = refractive index (Na D-line) (dimensionless); wn = mass fraction of the nth substance listed; conditions: 100 kPa, Liquid, Standard Abbe refractometry

O=S(=O)([O-])[O-].[Cu+2] [copper sulfate] + O
Conditions	electrical conductivity, 308.15 K [S/m]	mass density, 303.15 K [kg/m3]	mass density, 308.15 K [kg/m3]	refractive index, 288.15 K	refractive index, 293.15 K	refractive index, 298.15 K	refractive index, 303.15 K	refractive index, 308.15 K	viscosity, 303.15 K [mPa·s]	viscosity, 308.15 K [mPa·s]
[1], w1 = 0.0101	0.719	1005.98	1004.32	–	–	–	–	–	0.835	0.758
[1], w1 = 0.0202	1.24	1016.35	1014.65	–	–	–	–	–	0.892	0.8
[1], w1 = 0.0305	1.72	1026.77	1024.97	–	–	–	–	–	0.918	0.835
[1], w1 = 0.0409	2.16	1037.41	1035.64	–	–	–	–	–	0.952	0.857
[1], w1 = 0.0514	2.57	1048.04	1046.35	–	–	–	–	–	1.014	0.883
[1], w1 = 0.0621	2.97	1058.96	1057.16	–	–	–	–	–	1.029	0.948
[1], w1 = 0.0729	3.36	1070.1	1068.13	–	–	–	–	–	1.098	0.99
[1], w1 = 0.0838	3.74	1081.38	1078.76	–	–	–	–	–	1.122	1.022
[1], w1 = 0.0948	4.09	1092.64	1091.27	–	–	–	–	–	1.203	1.089
[2], w1 = 0.0101	–	–	–	1.3353	1.3348	1.3343	1.3338	1.3331	–	–
[2], w1 = 0.0202	–	–	–	1.3372	1.3367	1.3362	1.3356	1.3349	–	–
[2], w1 = 0.0305	–	–	–	1.3391	1.3384	1.3379	1.3373	1.3367	–	–
[2], w1 = 0.0409	–	–	–	1.3411	1.3405	1.34	1.3392	1.3387	–	–
[2], w1 = 0.0514	–	–	–	1.3429	1.3424	1.3418	1.3411	1.3405	–	–
[2], w1 = 0.0621	–	–	–	1.3449	1.3444	1.3437	1.343	1.3426	–	–
[2], w1 = 0.0729	–	–	–	1.3469	1.3463	1.3456	1.3449	1.3445	–	–
[2], w1 = 0.0838	–	–	–	1.3488	1.3483	1.3476	1.3468	1.3463	–	–
[2], w1 = 0.0948	–	–	–	1.3508	1.3504	1.3495	1.3488	1.3481	–	–
